Measurements published in US7972390B2, “Methods for controlling crystal growth, crystallization, structures and phases in materials and systems” (GR Intellectual Reserve, LLC, priority 2003, dated 2011).

Assays:
[1] = Example 8c: sugar solubility in sodium-lamp conditioned vs control water at room temperature; assay type: physicochemical; details: for Percent sugar by weight: 23.5° C.
Protocol: Source, Greeneville Municipal Water supply, Greeneville, Tenn. […] Length 12″.
One beaker “KK” was placed under a sodium lamp 112 for about three hours, as configured in FIG. 97f, while the other Beaker “IL” functioning as the control was placed in an incubator for about three hours at an internal temperature of about 28° C.
Sugar (about 300 grams) was then added to each beaker and stirred.

[2] = Example 8d: phenyl salicylate solubility in neon-lamp conditioned vs unconditioned acetone at room temperature; assay type: physicochemical; details: equilibrated about 20 hours
Protocol: Acetone (about 1 ml) was pipetted into small glass test tubes and stoppers placed in the tube. […] Tubes were conditioned under a neon lamp; (about 8 mW/cm^2) in an otherwise dark room for about 1.5 hours at about 28° C. ambient temperature. Tubes were also placed simultaneously in an incubator at about 28° C. for about 1.5 hours.
Phenyl salicylate (about 3.50 grams) was added to each tube leaving a layer undissolved on the bottom of each tube. The solutions were allowed to equilibrate overnight (about 20 hours). Solution was filtered over the crystals and 0.500 ml pipetted into fresh tubes.
After the acetone evaporated, dry weights of phenyl salicylate per ml dissolved in conditioned and unconditioned acetone were determined.

Percent sugar by weight ([1]; Beaker KK: water under Na lamp three hours) [%] | Percent sugar by weight ([1]; Beaker LL: control water 3 hours in incubator) [%] | More sucrose by weight dissolved by conditioned water than by unconditioned control water ([1]; after three hours exposure of the water to the sodium lamp) | Average amount of phenyl salicylate dissolved ([2]; acetone conditioned under neon lamp about 1.5 hours) [g/mL] | Average amount of phenyl salicylate dissolved ([2]; unconditioned acetone (incubator about 1.5 hours)) [g/mL] | Compound
39.1 | 36.7 | about 2.4% |  |  | OC[C@H]1O[C@@](CO)(O[C@H]2O[C@H](CO)[C@@H](O)[C@H](O)[C@H]2O)[C@@H](O)[C@@H]1O [sucrose, Sucrose]
 |  |  | 0.78 | 0.68 | O=C(Oc1ccccc1)c1ccccc1O [phenyl salicylate, Phenyl salicylate]
